Assays:
[1] = tested on: mouse myopia-induced model; test: Mouse myopia-induced model (−30 D minus lens): suppression of myopia induction; conditions: for difference of variation in refractive value between lens-worn eyes and control eyes / difference of variation in axial length of the eye between lens-worn eyes and control eyes: 50 μM in PBS; for difference of variation in refractive value between lens-worn eyes and control eyes: FIG. 8A right graph; for difference of variation in axial length of the eye between lens-worn eyes and control eyes: FIG. 8B right graph; for refractive value variation of lens-worn myopia-induced eyes vs PBS administered group / axial length of the eye variation of lens-worn myopia-induced eyes vs PBS administered group: three weeks; for refractive value variation of lens-worn myopia-induced eyes vs PBS administered group: FIG. 6 left; for axial length of the eye variation of lens-worn myopia-induced eyes vs PBS administered group: FIG. 6 right
Method: Specifically, the mouse myopia-induced model is prepared as follows. Because it is easier to induce myopia to a juvenile mouse, it is preferable to mount the minus lens as soon as possible after the weaning. A 3-week-old C57BL6J is used here. The mouse is anesthetized with three types-mixed anesthetic of Domitor (Nippon Zenyaku Kogyo Co., Ltd.), Betorphal (Meiji Seika Pharma Co., Ltd.), and Midazolam (Sandoz K. K.). The skull is then opened with scissors. A post 1 is erected in the skull and fixed with dental cement (Super-Bond, Sun Medical Co., Ltd.). The post is threaded to fix an adjusting instrument described later with a nut.
To induce myopia, −30 diopter (D) minus lens (Rainbow contact, Rainbow Optical Laboratory Co., Ltd.) 2 is mounted on one side, and 0 D lens or only frame 3 is mounted on the other side as a control. A protector 4 having a laterally projected shape is mounted to a frame part in the lower portion of the lens to prevent the mouse from damaging the lens with its forelegs or the like when mounting the lens to the mouse. The protector 4 prevents the mouse from touching the lens, causing no damages on the lens. The protector 4 used here is in the form mounted to the frame part and integrated with it, although it needs not be integrated with the lens as long as the mouse behavior will not damage the lens.
An adjusting instrument 5 is bonded to a frame part in the upper portion of the lens to adjust the width and angle of the mounted lens in response to the growth of the mouse. The adjusting instrument 5 is folded in a dog leg shape. The adjusting instrument 5 includes one side mounted with the lens and the other side provided with a slot 6 for mounting the adjusting instrument 5 to the post 1 erected in the head. Putting the post 1 over the slot 6 and screwing it with a nut 7 can adhere and fix the adjusting instrument 5 to the skin without compressing the periphery of both eyes of the mouse.
An adjustment mechanism including three parts of the post 1, the nut 7, and the adjusting instrument 5 can adjust the width and angle to bring the lens to the mouse eye position in response to the growth of the mouse. Further, because the lens is detachable, it is possible to measure the change over time of the axial length of the eye and the refractive value.
The left eye was worn with only a frame as a control and the right eye was worn with a −30 D lens for three weeks. The refractive value, the axial length of the eye, and the sclera thickness were measured to find the differences between before and after wearing them. The refractive value was measured with a refractometer (Infrared photorefractor for mice, made by Proffesor Schaeffel, University of Tubingen). The axial length of the eye was measured with an SD-OCT (Spectral-Domain Optical Coherence Tomography, Envisu R4310, Bioptigen Inc.). The sclera thickness was measured by obtaining an optical image of a hematoxylin and eosin (HE) stained paraffin piece by an optical microscope (BX53, Olympus Corporation) and then using an imaging software cellSens. The results were analyzed with ANOVA, Turky HSD.
Then, an analysis was conducted to check for suppression of myopia induction by administration of endoplasmic reticulum stress suppressant. […] Note that only phosphate-buffered saline (PBS) was administered to the control group.

[2] = tested on: mouse eye; test: Induction of myopia by eye drop of endoplasmic reticulum stress inducer; type: in vivo, C57BL6J mouse; conditions: single eye drop, right eye, one week after administration, FIG. 7
Method: Because the endoplasmic reticulum stress suppressant has a suppression effect on myopia induction as describe above, it is considered that the endoplasmic reticulum stress directly participates in myopia induction. Then, an analysis was conducted to check for induction of myopia by administration of an agent for inducing endoplasmic reticulum stress. The subject was a 3-week-old male C57BL6J mouse (n=12). The right eye of the mouse was administered once by eye drop with 50 μg/ml of tunicamycin (Tm) (Sigma-Aldrich Co. LLC) or 10 μM of thapsigargin (TG) (Wako Pure Chemical Industries, Ltd.), and the left eye was administered once by eye drop with PBS (Veh).

[3] = eye drop once a day, one week, n=3
[4] = 0.2% solution in PBS, eye drop once a day, n=4
[5] = 2% solution in PBS, eye drop once a day, n=4

Compound: Cc1cccc(CC(=O)N2CCc3c2ccc(-c2cn(C)c4ncnc(N)c24)c3F)n1 [GSK2656157]
- difference of variation in refractive value between lens-worn eyes and control eyes [1, 3]: significant decrease in difference of variation
- difference of variation in axial length of the eye between lens-worn eyes and control eyes [1, 3]: significant decrease in difference of variation

Compound: Cc1c(O)cccc1C(=O)N[C@@H](CSc1ccccc1)[C@H](O)CN1C[C@H]2CCCC[C@H]2C[C@H]1C(=O)NC(C)(C)C [Nelfinavir]
- difference of variation in refractive value between lens-worn eyes and control eyes [1, 3]: significant decrease in difference of variation
- difference of variation in axial length of the eye between lens-worn eyes and control eyes [1, 3]: significant decrease in difference of variation

Compound: O=S(=O)(N=Cc1c(O)ccc2ccccc12)c1cccs1 [STF-083010]
- refractive value variation, lens-worn eye against lens-unworn control eye ([1]; 60 μM in PBS, eye drop once a day, one week, n=3, FIG. 8A): showed significant changes
- axial length of the eye variation, lens-worn eye against lens-unworn control eye ([1]; 60 μM in PBS, eye drop once a day, one week, n=3, FIG. 8B): showed significant changes

Compound: C[C@H](CCC(=O)NCCS(=O)(=O)O)[C@H]1CC[C@H]2[C@@H]3[C@@H](O)C[C@@H]4C[C@H](O)CC[C@]4(C)[C@H]3CC[C@]12C [tauroursodeoxycholic acid, Tauroursodeoxycholic acid]
- changes in the refractive value, −30 D lens-worn eyes vs only frame-worn eyes ([1]; 100 mg/kg once a day intraperitoneal, one week after wearing the lens, n=4, FIG. 5 left): no differences were recognized between both types of eyes
- changes in the axial length of the eye of myopia-induced eyes vs PBS administered group ([1]; 100 mg/kg once a day intraperitoneal, one week after wearing the lens, n=4, FIG. 5 right): significant changes were recognized in the axial length of the eye

Compound: C/C=C(/C)C(=O)O[C@H]1C(C)=C2[C@H]([C@@H]1OC(=O)CCCCCCC)[C@@](C)(OC(C)=O)C[C@H](OC(=O)CCC)[C@@]1(O)[C@H]2OC(=O)[C@@]1(C)O [thapsigargin]
- axial length of the eye variation vs PBS administered eyes (myopia induction) ([2]; 10 μM): significant differences were recognized
- refractive value variation vs PBS administered eyes (myopia induction) ([2]; 10 μM): significant differences were recognized

Compound: sodium phenylbutyrate
- refractive value variation of lens-worn myopia-induced eyes vs PBS administered group [1, 4]: showed a tendency to suppress changes
- axial length of the eye variation of lens-worn myopia-induced eyes vs PBS administered group [1, 4]: showed a tendency to suppress changes
- variation in the refractive value, −30 D lens-worn eyes vs only frame-worn eyes ([1]; 200 mg/kg/day intraperitoneal, day 2 to 21 after wearing the lens, measured on day 21, FIG. 4A): no changes were recognized in the refractive value
- changes in the axial length of the eye, minus lens-worn eyes vs only frame-worn eyes ([1]; 200 mg/kg/day intraperitoneal, day 2 to 21 after wearing the lens, measured on day 21, FIG. 4B): no difference was recognized in the extension
- extension of the normal axial length of the eye associated with the growth ([1]; 200 mg/kg/day intraperitoneal, one week and three weeks after wearing the lens, FIG. 4C): does not affect the extension of the normal axial length of the eye associated with the growth
- refractive value variation of lens-worn myopia-induced eyes vs PBS administered group [1, 5]: significant differences were recognized
- axial length of the eye variation of lens-worn myopia-induced eyes vs PBS administered group [1, 5]: significant differences were recognized

Compound: tunicamycin
- axial length of the eye variation vs PBS administered eyes (myopia induction) ([2]; 50 μg/ml): significant differences were recognized
- refractive value variation vs PBS administered eyes (myopia induction) ([2]; 50 μg/ml): significant differences were recognized
